Source: patent US9084770B2, “Modulation of insulin like growth factor I receptor expression in cancer” (Antisense Therapeutics, Ltd., priority 2008, dated 2015)

What was measured:
[1] = test system: insulin receptor IR-A, IR-B, IR-β protein; assay: Insulin receptor transcripts and protein in PC3 Ptx-R cells; format: cell-based, human
Description: The PC3 Ptx-R cells retain sensitivity to ATL1101-induced IGF-IR down regulation at the mRNA and protein level as shown in FIGS. 11A-C. […] ATL1101 and the control oligodeoxynucleotide ISIS 306064 had no effect on either of the alternative spliced isoform transcripts of the insulin receptor, IR-A, IR-B or IR-β protein or vinculin protein levels.

[2] = test system: Cyclin D1, Cyclin E, p-RB, p27; assay: Cell cycle proteins in LNCaP and PC-3 cells, immunoblot; format: cell-based, human
Procedure: The Effect of IGF-IR silencing with IGF-IR antisense oligonucleotide (ATL1101) on LNCaP and PC3 cell apoptosis and cell cycle is shown in FIGS. 4A(i)-(ii), 4B, 4C(i)-(ii), and Table 2. Cells were transfected with indicated concentrations of ATL1101, control oligodeoxynucleotide or oligofectamine as in FIGS. 1A(i)-1B(ii). Two days after treatment, cell cycle analysis was determined by flow cytometry using propidium iodide staining. […] In FIGS. 4C(i)-(ii), LNCaP (FIG. 4C (i)) or PC-3 (FIG. 4C (ii)) cells were transfected with indicated concentration of ATL1101 or control oligodeoxynucleotide (ISIS 306064) for two days. Cells were then cultured in FBS media for one day and in serum-free media for one day. Whole cell lysates (30 μg) were subjected to SDS-PAGE and immunoblotted to assess Cyclin D1, Cyclin E, p-RB, total Rb, and p27 protein levels. Oligo, oligofectamine treated cells only.

PC3 tumors = assay: PC-3 xenograft with Paclitaxel, mean tumor volume; format: in vivo, mice; settings: for mean tumor size: 15 mg/kg i.p. oligonucleotide plus Paclitaxel; for mean tumor size, % of control: plus Paclitaxel
Description: In vivo treatments in a PC-3 xenograft model were done substantially as described by Zellweger et al., 2001. PC3 cells (2×10^6 cells) were xenografted by subcutaneous injection into recipient 6-8 week-old athymic nude (nu/nu) mice. When tumors reached 200 mm^3, mice were randomly assigned to one of two arms for treatment with 2′-MOE-modified IGF-IR antisense oligonucleotide (ATL1101) plus Paclitaxel, or mismatch control oligodeoxynucleotide ISIS 306064 plus Paclitaxel. Each experimental group consisted of 10 mice. After randomization, 15 mg/kg of ATL1101 antisense oligonucleotide or mismatch control oligonucleotide were injected intraperitoneal (i.p.) into each mouse once daily for the first 5 days and 3 times a week (every other day) thereafter for 7 weeks. On days 7, 9, 11, and on days 21, 23, and 25, 0.5 mg of polymeric micellar Paclitaxel was administered once daily by i.v. injection. Mean Tumor volume was measured once weekly for 8 weeks and calculated by the formula length×width×depth×0.5236.
In PC3 mice, after 5 weeks of treatment, mean tumor size in mice treated with Paclitaxel and mismatch control oligodeoxynucleotide was 326+/−40.9 mm^3 compared with 175+/−20.1 mm^3 in mice treated with Paclitaxel and ATL1101, or 53.7% of control (p<0.01). After 8 weeks of treatment, mean tumor size in mice treated with Paclitaxel and mismatch control oligodeoxynucleotide was 1417+/−222 mm^3 compared with 507+/−79.3 mm^3 in mice treated with Paclitaxel and ATL1101, or 35.8% of control (p<0.01).

[3] = test system: IGF-IR protein (IGF-IRB subunit); assay: IGF-IR protein in transfected LNCaP and PC3 cells, immunoblot; format: cell-based, human
Procedure: Established methods were used to test the activity of IGF-IR antisense oligonucleotide on LNCaP and PC-3 cell growth (crystal violet assay) and apoptosis (FACS). Dose- and sequence-specific suppression of IGF-IR mRNA and protein expression in ATL1101-treated LNCaP and PC3 PC cell lines in vitro were observed by QT-PCR and western blotting. Effects of the IGF-IR antisense oligonucleotide on various putative targets, including IGF-IR and downstream targets were evaluated using western blotting.
FIGS. 1B(i)-1B(ii) show sequence-specific and dose-dependent inhibition of IGF-IR protein by IGF-IR antisense oligonucleotide in LNCaP (FIG. 1B (i)) and PC-3 (FIG. […]) cells. […] Two days after the second transfection, whole cell detergent lysates were prepared and 30 μg of total protein was subjected to SDS-PAGE and immunoblotted for IGF-IRB subunit, IR-BB subunit and vinculin expression. Oligofectamine, oligofectamine treated cells only. In LNCaP cells, IGF-IR expression was >80% suppressed by 10 nM ATL1101 and was undetectable at 100 nM ATL1101. In PC3 cells, IGF-IR expression was suppressed ˜50% at 10 nM ATL1101, >80% at 50 nM ATL1101 and >90% at 200 nM. […] Vinculin expression is shown as a loading control.

cgaaggaaacaatactccga (CGAAGGAAACAATACTCCGA; 2'-MOE modified, pattern not given here) [ISIS 175317, 2′-MOE-modified IGF-IR antisense oligonucleotide, also known as ATL1101]
insulin receptor IR-A, IR-B transcripts or IR-β protein levels [1]: no effect
activation of Cyclin D1, Cyclin E, p-RB [2]: suppressed
p27 protein production [2]: increased
mean tumor size (PC3 tumors; after 5 weeks of treatment): 175+/−20.1 mm^3
mean tumor size, % of control (PC3 tumors; after 5 weeks of treatment): 53.7%
mean tumor size (PC3 tumors; after 8 weeks of treatment): 507+/−79.3 mm^3
mean tumor size, % of control (PC3 tumors; after 8 weeks of treatment): 35.8%
suppression of IGF-IR protein expression ([3]; LNCaP cells, 10 nM, two days after second transfection): > 80%
IGF-IR protein expression ([3]; LNCaP cells, 100 nM): undetectable
suppression of IGF-IR protein expression ([3]; PC3 cells, 10 nM): ~50%
suppression of IGF-IR protein expression ([3]; PC3 cells, 50 nM): > 80%
suppression of IGF-IR protein expression ([3]; PC3 cells, 200 nM): > 90%
